# “Also recorded” adds a separate entry of the source. Structures can show the parent of a compound that is named as a salt. Where two headings read alike, the source gives them in different places.
# Key:
# [1] = tested on: Trimethylglycine:Trifluoroacetamide fixed mouse liver single-cells; test: Lysis of fixed cells by solvents and aqueous solutions; format: cell-based; details: for Cell lysis effect (4 day treatment): nuclei: whether nuclei are lysed
# From the text: (§1) This is important for example if studying the RNA component of the cytoplasm, nuclei or the entire cell contents as a selection of the source of the RNA can be made based on the solvent used.
# [2] = tested on: DES fixed cell cytoplasm and nuclei; test: Solubilisation of cytoplasm versus nuclei of DES fixed cells; format: cell-based; details: DMSO at 25% or more final concentration
# From the text: as §1
# Such intact nuclei can be sorted, pelleted selected, and their contents analysed either in entire nuclei by using, for example, labeled antibodies specific to nuclear epitopes such as Ki-67 or, by using fluorescent nucleic acid probes for detecting RNA and DNA. Alternatively the purified nuclei can be lysed and their contents including proteins, DNA and RNA released for further analysis such as genomic DNA sequencing, protein-protein interactions, intron splicing, CHIP analysis, chromosome analysis and/or RNA sequencing.
# [3] = 500 fixed, dissociated mouse liver cells per well, bromophenol blue stained, 4 day treatment
# [4] = organic solvents in the range of 80-100% final concentration
compound,measurement,setting,value
10 mg/ml BSA (acetylated): BSA (acetylated),Cell lysis effect (4 day treatment),[1]; [3],No lysis
"C[C@H](CCC(=O)NCCC[N+](C)(C)CCCS(=O)(=O)[O-])[C@H]1CC[C@H]2[C@@H]3[C@H](O)C[C@@H]4C[C@H](O)CC[C@]4(C)[C@H]3C[C@H](O)[C@]12C [1% CHAPS, CHAPS]",Cell lysis effect (4 day treatment),[1]; [3],>80% cell lysis
"CC(O)(C(F)(F)F)C(F)(F)F [1,1,1,3,3,3-Hexafluoro-2-methyl-2-propanol]",lysing of Trimethylglycine:Trifluoroacetamide (1:2 mol:mol) fixed samples,[1]; [4],particularly effective at effectuating cell lysis
"OC(c1ccccc1)(C(F)(F)F)C(F)(F)F [1,1,1,3,3,3-Hexafluoro-2-phenyl-2-propanol]",lysing of Trimethylglycine:Trifluoroacetamide (1:2 mol:mol) fixed samples,[1]; [4],particularly effective at effectuating cell lysis
"[Cl-].[Li+] [1M LiCl, LiCl]",Cell lysis effect (4 day treatment),[1]; [3],No lysis
"CCCCCCCCCCCCOS(=O)(=O)[O-].[Na+] [2% SDS, Sodium dodecyl sulphate]",Cell lysis effect (4 day treatment),"[1]; 500 fixed, dissociated mouse liver cells per well, bromophenol blue stained, 4 day treatment, listed as 0.1% SDS, sulphate",>15% cell lysis
same,Cell lysis effect (4 day treatment),"[1]; 500 fixed, dissociated mouse liver cells per well, bromophenol blue stained, 4 day treatment, sulphate",Complete Lysis
"N#CS.N=C(N)N [4M Guanidine thiocyanate, Guanidine thiocyanate]",Cell lysis effect (4 day treatment),[1],>50% cell lysis
"N=C(N)N [5M Guanidine HCl, Guanidine HCl]",Cell lysis effect (4 day treatment),[1]; [3],>50% cell lysis
"[I-].[K+] [5M Potassium iodide, Potassium iodide]",Cell lysis effect (4 day treatment),[1]; [3],>50% cell lysis
same,Cell lysis effect (4 day treatment),"[1]; 500 fixed, dissociated mouse liver cells per well, bromophenol blue stained, 4 day treatment, listed as 1M Potassium iodide",No lysis
same,lysing of Trimethylglycine:Trifluoroacetamide (1:2 mol:mol) fixed samples,[1]; [4],efficient at lysing
"[O-][Cl+3]([O-])([O-])O [5M Sodium perchlorate, Sodium perchlorate]",Cell lysis effect (4 day treatment),[1]; [3],100% cell lysis
same,lysing of Trimethylglycine:Trifluoroacetamide (1:2 mol:mol) fixed samples,[1]; [4],efficient at lysing
"CCCC[N+](CCCC)(CCCC)CCCC.[Cl-] [5M Tetrabutyl ammonium chloride, Tetrabutyl ammonium chloride]",Cell lysis effect (4 day treatment),[1],No lysis
"C[N+](C)(C)C.[Cl-] [5M Tetramethyl ammonium chloride, Tetramethyl ammonium chloride]",Cell lysis effect (4 day treatment),[1],No lysis
"NC(N)=O [8M Urea, Urea]",Cell lysis effect (4 day treatment),[1]; [3],> 95%
same,Cell lysis effect (4 day treatment): nuclei,[1]; 4 day treatment,not nuclei
"CN1CCCC1=O [50% N-methyl pyrrolidone, N-methyl pyrrolidone]",Cell lysis effect (4 day treatment),[1]; [3],No lysis
"OC(C(F)(F)F)C(F)(F)F [100% 1,1,1,3,3,3-Hexafluoro-2-propanol, 1,1,1,3,3,3-Hexafluoro-2-propanol]",solubilisation of fixed cell cytoplasm and nuclei,[2],very efficiently solubilises both the cytoplasm and nuclei
same,Cell lysis effect (4 day treatment),[1]; [3],Complete lysis
same,Cell lysis effect (4 day treatment),"[1]; 500 fixed, dissociated mouse liver cells per well, bromophenol blue stained, 4 day treatment, listed as 10% 1,1,1,3,3,3-Hexafluoro-2-propanol",No lysis
same,Cell lysis effect (4 day treatment),"[1]; 500 fixed, dissociated mouse liver cells per well, bromophenol blue stained, 4 day treatment, listed as 50% 1,1,1,3,3,3-Hexafluoro-2-propanol",>40% cell lysis
same,Cell lysis effect (4 day treatment),"[1]; 500 fixed, dissociated mouse liver cells per well, bromophenol blue stained, 4 day treatment, listed as 90% 1,1,1,3,3,3-Hexafluoro-2-propanol",Complete lysis
same,lysing of Trimethylglycine:Trifluoroacetamide (1:2 mol:mol) fixed samples,[1]; [4],particularly effective at effectuating cell lysis
same,Cell lysis effect (4 day treatment): nuclei,[1]; 4 day treatment,including nuclei
"CCn1ccnc1 [100% 1-Ethylimidazole, 1-Ethylimidazole]",Cell lysis effect (4 day treatment),[1]; [3],No lysis
"Cn1ccnc1 [100% 1-Methylimidazole, 1-Methylimidazole]",Cell lysis effect (4 day treatment),[1]; [3],No lysis
"CC(C)=O [100% Acetone, Acetone]",Cell lysis effect (4 day treatment),[1]; [3],No lysis
"OCCS [100% Beta-mercaptoethanol, Beta-mercaptoethanol]",Cell lysis effect (4 day treatment),[1]; [3],100% cell lysis
same,Cell lysis effect (4 day treatment),"[1]; 500 fixed, dissociated mouse liver cells per well, bromophenol blue stained, 4 day treatment, listed as 10% Beta-mercaptoethanol",No lysis
same,Cell lysis effect (4 day treatment),"[1]; 500 fixed, dissociated mouse liver cells per well, bromophenol blue stained, 4 day treatment, listed as 20% Beta-mercaptoethanol",No lysis
same,Cell lysis effect (4 day treatment),"[1]; 500 fixed, dissociated mouse liver cells per well, bromophenol blue stained, 4 day treatment, listed as 40% Beta-mercaptoethanol",No lysis
same,Cell lysis effect (4 day treatment),"[1]; 500 fixed, dissociated mouse liver cells per well, bromophenol blue stained, 4 day treatment, listed as 60% Beta-mercaptoethanol",>50% cell lysis
same,Cell lysis effect (4 day treatment),"[1]; 500 fixed, dissociated mouse liver cells per well, bromophenol blue stained, 4 day treatment, listed as 80% Beta-mercaptoethanol",>80% cell lysis
same,lysing of Trimethylglycine:Trifluoroacetamide (1:2 mol:mol) fixed samples,[1]; [4],particularly effective at effectuating cell lysis
"C[S+](C)[O-] [100% DMSO, Dimethylsulphoxide]",solubilisation of fixed cell cytoplasm and nuclei,[2],very efficiently solubilises the Trimethylglycine:Trifluoroacetamide fixed cell's cytoplasm but not the nuclei; also recorded: particularly efficient at the solubilization and removal of the cell membrane and cytoplasm but not the nucleus
same,Cell lysis effect (4 day treatment),[1]; [3],>70% cell lysis
same,lysing of Trimethylglycine:Trifluoroacetamide (1:2 mol:mol) fixed samples,[1]; [4],particularly effective at effectuating cell lysis
"CCO [100% Ethanol, Ethanol]",Cell lysis effect (4 day treatment),[1]; [3],No lysis
"NC=O [100% Formamide, Formamide]",Cell lysis effect (4 day treatment),[1]; [3],No lysis
"O=CN1CCOCC1 [100% Formyl morpholine, Formyl morpholine]",Cell lysis effect (4 day treatment),[1]; [3],No lysis
"OCC(O)CO [100% Glycerol, Glycerol]",Cell lysis effect (4 day treatment),[1]; [3],No lysis
"CCN1CCCC1=O [100% N-ethyl pyrrolidone, N-ethyl pyrrolidone]",Cell lysis effect (4 day treatment),[1]; [3],No lysis
"CCN(CC)C(=O)C(F)(F)F [N,N-Diethyl-2,2,2-Trifluoroacetamide]",Cell lysis effect (4 day treatment),[1]; [3],No lysis
"CN(C)C(=O)C(F)(F)F [N,N-Methyl-2,2,2-Trifluoroacetamide]",Cell lysis effect (4 day treatment),[1]; [3],No lysis
"NC(=O)C(F)(F)C(F)F [Saturated Tetrafluoropropionamide, Tetrafluoropropionamide]",Cell lysis effect (4 day treatment),[1]; [3],No lysis
"NC(N)=S [Saturated Thiourea, Thiourea]",Cell lysis effect (4 day treatment),[1]; [3],100% cell lysis
"NC(=O)C(F)(F)F [Saturated Trifluoroacteamide, Trifluoroacteamide]",Cell lysis effect (4 day treatment),[1]; [3],No lysis
Oc1ccccc1 [phenol],lysing of Trimethylglycine:Trifluoroacetamide (1:2 mol:mol) fixed samples,[1],particularly effective at effectuating cell lysis
IGEPAL-CA630 [50% IGEPAL-CA630],Cell lysis effect (4 day treatment),[1]; [3],100% cell lysis
same,Cell lysis effect (4 day treatment),"[1]; 500 fixed, dissociated mouse liver cells per well, bromophenol blue stained, 4 day treatment, listed as 10% IGEPAL-CA630",No lysis
same,Cell lysis effect (4 day treatment),"[1]; 500 fixed, dissociated mouse liver cells per well, bromophenol blue stained, 4 day treatment, listed as 30% IGEPAL-CA630",No lysis
NP40 [1% NP40],Cell lysis effect (4 day treatment),[1]; [3],>50% cell lysis
PEG200 [100% PEG200],Cell lysis effect (4 day treatment),[1]; [3],No lysis
Tetramethyl ammonium oxide [50% Tetramethyl ammonium oxide],Cell lysis effect (4 day treatment),[1]; [3],100% cell lysis
Triton X100 [1% Triton X100],Cell lysis effect (4 day treatment),[1]; [3],>60% cell lysis
Tween-20 [1% Tween-20],Cell lysis effect (4 day treatment),[1]; [3],>60% cell lysis

# — patent US20210231538A1, “DISSOCIATION OF BIOLOGICAL SAMPLES” (priority 2018, published 2021)
